Measured values as given in patent US20130101680A1, “RADIOTHERAPY ENHANCER” (priority 2006, published 2013).

How the values were obtained:
[1] = tested on: human pancreatic cancer strain PAN-4; assay: Tumor growth inhibition by S-1, 5-FU or gemcitabine and X-ray, human pancreatic cancer strain PAN-4 in nude mice (Test Example 3); assay type: in vivo, human (in BALB/cA-nu mouse); details: for radiotherapy enhancing effect (combination with X-ray), in words: combination with X-ray 2 Gy, PAN-4
Experimental: (b) Preparation of test solution II: 5-fluorouracil (5-FU: Wako Pure Chemical Industries, Ltd.) was dissolved in physiological saline at a concentration of 1.5 mg/mL and sterilized by filtration with a 0.45-micron Millipore filter to obtain a drug solution of 15 mg/kg as 5-FU.
(c) Preparation of test solution 3: Gemcitabine (2′-difluoro-2′,3′-dideoxycytidine: Sigma) was dissolved in physiological saline at a concentration of 5 mg/mL and sterilized by filtration with a 0.45-micron Millipore filter to obtain a drug solution of 50 mg/kg as gemcitabine.
(d) Radiation (X-ray) irradiation method: Local irradiation was performed on a human tumor strain transplanted into the right femoral region of the mouse using MBR-1505R Type 2 X-ray Irradiation System of Hitachi Medical Corporation under an irradiation condition (irradiation position) so that exposure per mouse should be 2 Gy or 5 Gy. To prevent systemic irradiation, mice were placed in a storage box made of lead so that only their right leg should be exposed to radiation.
(e) Test: The human pancreatic cancer strain (PAN-4) subcutaneously transplanted into the back of a BALB/cA-nu mouse and grown beforehand was removed, cut into small fragments of about 2×2 mm^2 with scissors in physiological saline, and subcutaneously transplanted into the right femoral region of 5 or 6-week-old mice of the same strain with a transplantation needle. The mice were prebred for at least 1 to 2 weeks and divided into the control group, the radiation alone group, the drug alone group, and the drug plus radiation group, so that the tumor volume and standard deviation (S.D.) in each group (n=6 per group) should be as uniform as possible. Then, drug administration and X-ray irradiation were initiated. […] For 5-FU and gemcitabine, the drug treatment group was administered intravenously with 0.1 mL of the above-described 5-FU and gemcitabine drug solutions per body weight 10 g using a syringe for intravenous infusion on days 1 and 8. The radiation group was irradiated with 2 Gy or 5 Gy of X-ray in the above-described manner within about 1 hour after administration of each drug solution on day 1, at the start of the test, and on day 8. Tumor-bearing mice in the control group (non-radiation/non-drug treatment group) and the radiation alone group were orally administered with 0.5% HPMC solution alone in the same manner for 14 consecutive days.
By using the above-mentioned numerical formula 1, the tumor volume of each mouse in each group was obtained prior to the start of treatment experiment, on days 3, 5, 8 (1 week later) and 11 during the treatment period, and days 15 (2 weeks later), 18, 22 (3 weeks later), 25, and 29 (4 weeks later) after completion of treatment. For the PAN-4 strain, a relative tumor volume (RTV) to the tumor volume at the start was obtained. The mean tumor growth inhibition rate (%) in each treatment group based on the control group was obtained by using the above-mentioned numerical formula 2 on days 15, at the end of the treatment period, 22, and 29 and shown in Table 4.

[2] = No-observed adverse effect level / maximum nontoxic dose in mice; details: as 5-FU; PAN-4 tumor-transplanted mouse, intravenous on days 1 and 8
[3] = BALB/cA-nu, mouse, in vivo, iv
[4] = tested on: human lung cancer LC-11 strain; assay: X-ray irradiation enhancing effect of cisplatin, human lung cancer LC-11 strain in nude mice (Comparative Example 1); assay type: in vivo, human (in BALB/cA-nu mouse)
Experimental: (a) Preparation of test solution I: The cisplatin solution (0.5 mg/mL) available from Bristol-Myers Squibb Company was used as it was. 0.1 mL per mouse body weight 10 g was administered for the dose of cisplatin 5 mg/kg, and […] per mouse body weight 10 g was administered for the dose of 7.5 mg/kg.
(b) Radiation (X-ray) irradiation method: Local irradiation was performed on a human tumor strain transplanted into the right femoral region of the mouse using MBR-1505R Type 2 X-ray Irradiation System of Hitachi Medical Corporation under an irradiation condition (irradiation position) so that exposure per mouse should be 2 Gy or 5 Gy. To prevent systemic irradiation, mice were placed in a storage box made of lead so that only their right leg should be exposed to radiation.
(c) Test: The human lung cancer LC-11 strain subcutaneously transplanted into the back of a BALB/cA-nu mouse and grown beforehand were removed, cut into small fragments of about 2×2 mm^2 with scissors in physiological saline, and subcutaneously transplanted into the right femoral region of 5 to 6-week-old mice of the same strain with a transplantation needle. The mice were bred for at least 1 to 2 weeks and divided into the control group, the radiation alone group, the drug alone group, and the drug plus radiation group, so that the tumor volume and standard deviation (S.D.) in each group (n=6 per group) should be as uniform as possible. Then, drug administration and X-ray irradiation were initiated. For the drug treatment group, 0.1 mL per body weight 10 g of a cisplatin solution for the dose of 5 mg/kg or […] per body weight 10 g of this solution for the dose of 7.5 mg/kg was administered into the caudal vein on day 1. The radiation group was irradiated with 2 Gy of X-ray in the above-described manner on day 1, at the start of the test, and on day 8. For tumor-bearing mice in the control group (non-radiation/non-drug treatment group) and the radiation alone group, physiological saline was administered into the caudal vein on day 1.
By using the above-mentioned numerical formula 1, the tumor volume of each mouse in each group was obtained prior to the start of treatment experiment, on days 3, 5, 8 (1 week later) and 11 during the treatment period, and days 15 (2 weeks later), 18, 22 (3 weeks later), 25, and 29 (4 weeks later) after completion of treatment. A relative tumor volume (RTV) to the tumor volume at the start of the test was obtained for each mouse. Then, the mean tumor growth inhibition rate (IR; %) in each treatment group based on the control group was obtained by using the above-mentioned numerical formula 2 on day 15, at the end of the treatment period, and on day 29, at 4 weeks later, and shown in Table 3.

[5] = 5-FU 15 mg/kg i.v. days 1 and 8 + X-ray 2 Gy
[6] = 5-FU 15 mg/kg i.v. days 1 and 8, alone
[7] = Gemcitabine 50 mg/kg i.v. days 1 and 8 + X-ray 2 Gy
[8] = Gemcitabine 50 mg/kg i.v. days 1 and 8, alone
[9] = CDDP 5.0 mg/kg i.v. day 1 + X-ray 2 Gy
[10] = CDDP 5.0 mg/kg i.v. day 1, alone
[11] = CDDP 7.5 mg/kg i.v. day 1 + X-ray 2 Gy
[12] = CDDP 7.5 mg/kg i.v. day 1, alone

O=c1[nH]cc(F)c(=O)[nH]1 [5-FU, 5-fluorouracil]
Tumor growth inhibition rate (IR) (%) Day 15 [1, 5]: 15.8% | Tumor growth inhibition rate (IR) (%) Day 22 [1, 5]: 27.5% | Tumor growth inhibition rate (IR) (%) Day 29 [1, 5]: 36.9% | Tumor growth inhibition rate (IR) (%) Day 15 [1, 6]: 12.4% | Tumor growth inhibition rate (IR) (%) Day 22 [1, 6]: 16.8% | Tumor growth inhibition rate (IR) (%) Day 29 [1, 6]: 29.2% | radiotherapy enhancing effect (combination with X-ray), in words [1]: did not show marked effect of the combination use | maximum nontoxic dose [2]: 15 mg/kg

Nc1ccn([C@@H]2O[C@H](CO)[C@@H](O)C2(F)F)c(=O)n1 [Gemcitabine]
Tumor growth inhibition rate (IR) (%) Day 15 [1, 7]: 40.0% | Tumor growth inhibition rate (IR) (%) Day 15 ([1]; Gemcitabine 50 mg/kg i.v. days 1 and 8 + X-ray 2 Gy, listed as gemcitabine): 40% | Tumor growth inhibition rate (IR) (%) Day 22 [1, 7]: 62.3% | Tumor growth inhibition rate (IR) (%) Day 29 [1, 7]: 63.9% | Tumor growth inhibition rate (IR) (%) Day 15 [1, 8]: 39.8% | Tumor growth inhibition rate (IR) (%) Day 22 [1, 8]: 51.1% | Tumor growth inhibition rate (IR) (%) Day 29 [1, 8]: 51.1% | radiotherapy enhancing effect (combination with X-ray), in words [1]: did not show a strong effect of the combination use | no-observed adverse effect level [3]: 50 mg/kg

N.N.[Cl][Pt][Cl] [cisplatin]
IR (%) Day 15 [4, 9]: 53.8% | IR (%) Day 29 [4, 9]: 46.8% | IR (%) Day 15 [4, 10]: 39.9% | IR (%) Day 29 [4, 10]: 45.6% | IR (%) Day 15 [4, 11]: 54.6% | IR (%) Day 29 [4, 11]: 66.8% | IR (%) Day 15 [4, 12]: 55.8% | IR (%) Day 29 [4, 12]: 60.2% | radiotherapy enhancing effect (combination with X-ray), in words ([4]; cisplatin 5 mg/kg or 7.5 mg/kg with X-ray 2 Gy, LC-11): did not notably enhance antitumor effects compared with treatment with cisplatin alone
